Paper PMC10247784, “Physiological activation of human and mouse bitter taste receptors by bile acids” (Communications Biology, 2023)
“And” between values parts separate entries of the source, which are not always exact repeats. Identical values can stand only once.

How the values were obtained:
[1] = tested on: T2R02 of Latimeria chalumnae; design: method as in PMID 33355666; conditions: cited from earlier work
human TAS2R39 = target: T1, human TAS2R39 (Homo sapiens, UniProt P59534); assay: Calcium imaging assay (FLIPR), HEK293T-Gα16gust44 cells transfected with human TAS2R39; format: cell-based; conditions: for Efficacy = maximal amplitude (ΔF/F) / Efficacy (maximal amplitude ΔF/F), individual data points / Δ F/F: TAS2R39; for Efficacy = maximal amplitude (ΔF/F) / Efficacy (maximal amplitude ΔF/F), individual data points: bile acids; for Efficacy = maximal amplitude (ΔF/F): mean; for Efficacy (maximal amplitude ΔF/F), individual data points: single replicates; for Activation threshold concentration TAS2R39: lowest concentration with significantly increased fluorescence vs empty vector (p < 0.01)
T1 construct: expressed in transfected cells; host or cells: HEK293T-Gα16gust44
T1 sequence (P59534 1-338): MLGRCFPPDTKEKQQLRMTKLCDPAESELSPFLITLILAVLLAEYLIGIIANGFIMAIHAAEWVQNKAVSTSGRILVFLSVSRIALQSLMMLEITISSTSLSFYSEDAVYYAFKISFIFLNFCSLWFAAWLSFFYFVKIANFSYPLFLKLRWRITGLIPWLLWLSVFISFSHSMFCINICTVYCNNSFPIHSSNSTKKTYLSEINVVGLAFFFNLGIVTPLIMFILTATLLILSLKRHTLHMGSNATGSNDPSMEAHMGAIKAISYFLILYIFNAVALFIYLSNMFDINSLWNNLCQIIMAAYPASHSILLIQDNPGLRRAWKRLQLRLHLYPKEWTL
Method: This set of bile acids was chosen because of their commercial availability in high purities, their diversity within the class of bile acids and their previous detection and quantitation in human blood. Stock solutions were prepared in DMSO.
As basal growth medium for the HEK293T-Gα16gust44 cell line[17],[59] served Dulbecco’s modified eagle medium (DMEM) (Thermo Fisher Scientific, Darmstadt, Germany) supplemented with 10 % fetal bovine serum (Sigma-Aldrich, Steinheim, Germany), 2 mM L-glutamine (Sigma-Aldrich, Steinheim, Germany), 100 units/ml penicillin (Sigma Aldrich, Steinheim, Germany) and 100 µg/ml streptomycin (Sigma Aldrich, Steinheim, Germany). Growth conditions were 37 °C, 5 % CO2 and saturated air-humidity[60].
HEK293T-Gα16gust44 cells were seeded on poly-D-lysine (10 µg/ml) coated 96-well plates to reach a confluence of 40-60 % the next day. For transient transfection 150 ng of plasmid DNA containing the receptor of interest and 0.3 µl lipofectamine 2000 (Thermo Fisher Scientific, Darmstadt, Germany) per well were used and transfection took place according to the manual of lipofectamine 2000. […] The empty vector DNA (mock) was transfected as negative control[14],[41].
Cells were loaded using the calcium-sensitive fluorescent dye Fluo-4-AM (Abcam, Cambridge, Great Britain) in the presence of 2.5 mM probenecid (Sigma-Aldrich, Steinheim, Germany) the day after transfection[13],[41]. 1 h after loading, cells were washed with C1 buffer using a BioTek Cell Washer, incubated in the dark for half an hour and washed again. For automated agonist application and measurement of fluorescence changes, a FLIPR^TETRA device (Molecular Devices, San José, United States) was used. Viability of cells was tested by application of 100 nM Somatostatin 14 (Bachem, Bubendorf, Switzerland)[42].
Measured data were negative control corrected by subtracting the signal of the mock-transfected cells and exported to Microsoft Excel using the FLIPR software ScreenWorks 4.2. In Microsoft Excel software, standardization of maximum fluorescence intensities to the basal fluorescence and normalization to the buffer-only control was done to calculate the relative fluorescence changes (ΔF/F).
Initial screening experiments performed in duplicate wells were confirmed by at least one replication and representative traces were selected for display. All dose-response relationships were determined by three independent experiments (biological replicates) performed in duplicates (technical replicates). Threshold concentrations, defined as lowest substance concentrations leading to statistically significant elevated fluorescence changes in receptor-transfected cells compared with empty vector-transfected cells, were determined using SigmaPlot with Student’s t-test to evaluate statistical significance (p < 0.01).

Row | Structure (SMILES) | Activation of T2R02 [1] | Efficacy = maximal amplitude (ΔF/F) (human TAS2R39) | Activation threshold concentration TAS2R39 (human TAS2R39) [µM] | Δ F/F (human TAS2R39; Conc. 0,01 mM) | Δ F/F (human TAS2R39; Conc. 0,1 mM) | Δ F/F (human TAS2R39; Conc. 0,03 mM) | Δ F/F (human TAS2R39; Conc. 0,3 mM) | Δ F/F (human TAS2R39; Conc. 0,001 mM) | Δ F/F (human TAS2R39; Conc. 1 mM) | Δ F/F (human TAS2R39; Conc. 0,003 mM) | further results
1 | C[C@H](CCC(=O)O)[C@H]1CC[C@H]2[C@@H]3[C@H](O)C[C@@H]4C[C@H](O)CC[C@]4(C)[C@H]3CC[C@]12C [Chenodeoxycholic Acid, chenodeoxycholic acid] | activate |  |  |  |  |  |  |  |  |  | 
2 | C[C@H](CCC(=O)O)[C@H]1CC[C@H]2[C@@H]3[C@H](O)C[C@@H]4C[C@H](O)CC[C@]4(C)[C@H]3C[C@H](O)[C@]12C [Cholic Acid, cholic acid] |  | 0.2007 | 300 |  |  |  |  |  |  |  | Efficacy (maximal amplitude ΔF/F), individual data points (human TAS2R39; listed as CA): 0.15 and 0.2304 and 0.2216
3 | C[C@H](CCC(=O)O)[C@H]1CC[C@H]2[C@@H]3CC[C@@H]4C[C@H](O)CC[C@]4(C)[C@H]3C[C@H](O)[C@]12C [Deoxycholic Acid, deoxycholic acid] | activate |  |  |  |  |  |  |  |  |  | 
4 | C[C@H](CCC(=O)NCC(=O)O)[C@H]1CC[C@H]2[C@@H]3[C@H](O)C[C@@H]4C[C@H](O)CC[C@]4(C)[C@H]3C[C@H](O)[C@]12C [Glycocholic Acid, glycocholic acid] | activate | 0.1303 | 300 | 0.001299 | 0.005941 | 0.007895 | 0.02136 | 0.004486 | 0.1303 | 0.004867 | Efficacy (maximal amplitude ΔF/F), individual data points (human TAS2R39; listed as GCA): 0.1116 and 0.125 and 0.1542
5 | C[C@H](CCC(=O)NCCS(=O)(=O)O)[C@H]1CC[C@H]2[C@@H]3[C@H](O)C[C@@H]4C[C@H](O)CC[C@]4(C)[C@H]3C[C@H](O)[C@]12C [Taurocholic Acid, taurocholic acid] |  | 0.155 | 300 | 0.002616 | 0.007681 | 0.00381 | 0.02945 | -0.001111 | 0.155 | 0.0008114 | Efficacy (maximal amplitude ΔF/F), individual data points (human TAS2R39; listed as TCA): 0.1385 and 0.1739 and 0.1528
6 | C[C@H](CCC(=O)NCCS(=O)(=O)O)[C@H]1CC[C@H]2[C@@H]3CC[C@@H]4C[C@H](O)CC[C@]4(C)[C@H]3CC[C@]12C [Taurolithocholic Acid, taurolithocholic acid] | activate |  |  |  |  |  |  |  |  |  | 
